What was measured:
IgG and IgM [1] = assay: Amount of antibodies formed in rats, PHA (phytohemaglutinin) reaction; format: in vivo, rats of wistar strain
Procedure: (§1) Effects on the formation of homocytotropic antibodies in rats
(§2) An experiment was carried out in accordance with the Tada and Okumura's method (J. Immunol., Vol. 106, p 1002, 1971).
(§3) Groups each consisting of 8-9 rats of wistar strain were used in this experiment.
(§4) As shown in Tables 2-5, to the four legs of the rats were injected 1 mg of dinitrophenylated extract of ascaris suum (DNP-As) as protein and 10^10 cells of vaccinum pertussis (B. Pertussis) for sensitization, after which the compounds of this invention were administered to the injected rats for 5 days. Eight to nine days after the sensitization, bloodletting was effected on these rats to collect their serum for estimating the amount of antibodies formed using passive cutaneous anaphylaxis (PCA) reactions and phytohemaglutinin (PHA) reactions.
(2) Estimation of the amount of antibodies by PHA reaction:
The collected serum was diluted in various concentrations and incubated with sheep red blood cells coupled with DNP-As using bis-diazoated benzydine to determine the dilution of the serum which induced the minimum hemaglutination. […]

IgE antibodies [2] = assay: Formation of homocytotropic antibodies in mice, PCA reaction; format: in vivo, mice (BALB/c strain), female; settings: 100 mg/Kg/day for 5 days
Procedure: (§5) The collected serum was diluted in various concentrations and intradermally injected to other rats. Forty-eight (48) hours after the injection, 2 mg of DNP-As as protein and 0.5 ml of a 1% Evans Blue were intravenously injected into these rats to determine the dilution of the serum which induced the minimum extravasted dye. It should be noted that the symbols "*" and "**" in the following Tables indicate significant differences at risks of 5% and 1%, respectively.
(§6) Effects on the formation of homocytotropic antibodies in mice
(§7) Groups each consisting of 5 female mice (BALB/c strain) were used in this experiment. The mice were sensitized with 10 μg of DNP-As as protein and 3 mg of Al(OH)3, after which the test compound was administered to the sensitized mice for 5 days (at a dose of 100 mg/Kg/day). After the sensitization, a sample of serum was collected from the mice and treated in the same manner as in Experiment 1 to determine the amount of antibodies formed. […]

IgE antibodies [3] = assay: Formation of homocytotropic antibodies in rats, PCA (passive cutaneous anaphylaxis) reaction; format: in vivo, rats of wistar strain
Procedure: as §1, §2, §3, §4
(1) Estimation of the amount of antibodies by PCA reaction:
as §5, with “respectively. […]” for “respectively.”

IgG and IgM [4] = assay: Amount of antibodies formed in mice, PHA reaction; format: in vivo, mice (BALB/c strain), female; settings: 100 mg/Kg/day for 5 days
Procedure: The collected serum was diluted in various concentrations and incubated with sheep red blood cells coupled with DNP-As using bis-diazoated benzydine to determine the dilution of the serum which induced the minimum hemaglutination.
as §6, §7

[5] = Table 4, oral administration, serum 8 days after the sensitization, control 320 (270-370)
[6] = Table 6, oral, serum 10 days after sensitization, control 256 ± 128
[7] = Table 6, oral, serum 21 days after sensitization, control 1024 ± 0
[8] = Table 6, oral, serum 30 days after sensitization, control 299 ± 43
[9] = Table 2, abdominal and oral administration, 5 days, serum 8 days after sensitization, control 237 (169-337)
[10] = Table 2, abdominal and oral administration, 5 days, serum 9 days after sensitization, control 169 (119-223)
[11] = Table 8, hypodermic, serum 9 days after, control 708.0 (575.4-871.0)
[12] = Table 8, hypodermic, serum 10 days after, control 537.0 (380.2-758.6)
[13] = Table 8, hypodermic, serum 37 days after, control 2818.4 (1862.1-4265.8)
[14] = Table 10, oral, serum 10 days after, control 125.9 (95.5-166.0)
[15] = Table 11, hypodermic, serum 9 days after, control 380.2 (269.2-537.0)
[16] = Table 11, hypodermic, serum 10 days after, control 109.7 (95.5-125.9)
[17] = Table 11, hypodermic, serum 37 days after, control 1071.5 (871.0-1318.3)

SMILES	PHA of rat: dilution of the serum which induced the minimum hemaglutination (IgG and IgM [1]; [5])	PCA of mice (serum dilution) (IgE antibodies [2]; [6])	PCA of mice (serum dilution) (IgE antibodies [2]; [7])	PCA of mice (serum dilution) (IgE antibodies [2]; [8])	PCA of rat: dilution of the serum which induced the minimum extravasted dye (IgE antibodies [3]; [9])	PCA of rat: dilution of the serum which induced the minimum extravasted dye (IgE antibodies [3]; [10])	PHA of rat: dilution of the serum which induced the minimum hemaglutination (IgG and IgM [1]; Table 5 right half, hypodermic administration, serum 8 days after sensitization, control 3235.9 (2454.7-4265.8))	PCA of mice (serum dilution) (IgE antibodies [2]; [11])	PCA of mice (serum dilution) (IgE antibodies [2]; [12])	PCA of mice (serum dilution) (IgE antibodies [2]; [13])	PHA of mice (serum dilution) (IgG and IgM [4]; [14])	PHA of mice (serum dilution) (IgG and IgM [4]; [15])	PHA of mice (serum dilution) (IgG and IgM [4]; [16])	PHA of mice (serum dilution) (IgG and IgM [4]; [17])	PHA of rat: dilution of the serum which induced the minimum hemaglutination (IgG and IgM [1]; Table 5 left half, hypodermic administration, serum 8 days after sensitization, control 1318.3 (933.3-1862.1))	PCA of mice (serum dilution) (IgE antibodies [2]; Table 7, oral, serum 10 days after sensitization, control 537.0 (436.5-660.7))	PCA of mice (serum dilution) (IgE antibodies [2]; Table 9, hypodermic, serum 37 days after, control 3467.37 (2013.72-3767.04))	PCA of rat: dilution of the serum which induced the minimum extravasted dye (IgE antibodies [3]; Table 3 left half, hypodermic administration, serum 8 days after sensitization, control 144.5 (117.5-177.8))
CC(C)COC1(CO)OCC(O)C(O)C1O [Compound No. 3, isobutyl-β-D-fructopyranoside]	630	118 ± 37	563 ± 125	256 ± 129	73.5	97.0	–	–	–	–	–	–	–	–	–	–	–	–
CCCCCCOC1(CO)OCC(O)C(O)C1O [Compound No. 13, n-hexyl-α-L-sorbopyranoside]	–	–	–	–	–	–	4265.8 (2630.3-6918.3)	380.2	708.0	3235.9	109.7	125.9 (83.2-190.6)	102.3 (89.1-117.5)	1148.2 (758.6-1737.8)	–	–	–	–
O=P1(N(CCCl)CCCl)NCCCO1 (centres unmarked) [Cyclophosphamide, reference compound]	–	214 ± 103	561 ± 71	368 ± 146	–	16.0	–	–	–	–	–	–	–	–	–	–	–	–
CCCCCCOC1(CO)OCC(O)C(O)C1O [Compound No. 6, n-hexyl-β-D-fructopyranoside]	810	320	288	240	97.0	147	–	–	–	–	–	–	–	–	–	–	–	–
CCCCOC1(CO)OCC(O)C(O)C1O [Compound No. 9, n-butyl-α-L-sorbopyranoside]	–	–	–	–	–	–	–	708.0	218.8	1513.6	177.8	288.4 (245.5-354.8)	102.3 (89.1-117.5)	871.0 (660.7-1148.2)	5248.1	380.2	251.19	47.9
CCCCOC1(CO)OCC(O)C(O)C1O [Compound No. 2, n-butyl-β-D-fructopyranoside]	600	–	–	–	147	84.4	–	–	–	–	–	–	–	–	–	–	–	–
